These are literature values, as cited in US8216786B2, “Genetic polymorphisms associated with cardiovascular diseases, methods of detection and uses thereof” (Celera Corporation, priority 2008, dated 2012).

In this data set the test system is animal models and myocyte cultures. The settings on record: compared to lipophilic statins; cited from earlier work.

For the compound `CC[C@H](C)C(=O)O[C@H]1C[C@H](O)C=C2C=C[C@H](C)[C@H](CC[C@@H](O)C[C@@H](O)CC(=O)O)[C@H]21` [pravastatin], the myopathic potential result was “low myopathic potential”.
